Data set [1] deals with rats. The data set can be described thus: Histopathology of organs and tissues collected after single time point imaging. The method, then:
(§1) The single time point studies were terminal so that they allowed immediate tissue retrieval for cross-validation using histopathological analyses. […] Each animal was injected with about 2 mCi of ^99mTc-duramycin and after 1 hour the SPECT/CT/MRI data were acquired. From each group, the animals were immediately euthanized after imaging. The organs and tissues from three randomly selected individuals were collected, fixed and processed for histopathology.

The subject of data set [2] is rats. The data set can be described thus: In vivo single time point SPECT/CT/MRI imaging of ^99mTc-duramycin uptake (toxicity scan). The method, then: as §1
A second group of animals was with methotrexate as directed by the literature in an effort to examine whether early changes in toxicity would correlate with increases in ^99mTc-duramycin uptake.

For data set [3], the system named is rats. The conditions noted are these: cyclophosphamide single dose; each individual normalized to own baseline.
Procedure: This approach involved the acquisition of a baseline scan, prior to drug administration, followed by multiple post-treatment scans spanning the acute phase at 8, 48, 96, and 168 hours. […] In addition, the baseline scan for each animal serves as an internal control. The repeated noninvasive imaging allowed continuous monitoring of tissue changes with individualized data analysis.
The test system of data set [4] is rats. The data set is described as follows: Quantitative ex vivo gamma counting of ^99mTc-duramycin uptake in excised tissues after chemotoxic drug. How it is done:
This initial quantitative study was conducted by determining changes in radioactivity uptake in excised tissues using gamma counting ex vivo. Experiments were designed to survey changes in ^99mTc-duramycin uptake in tissues from treated versus untreated control groups after administration of a single dosage of each chemotherapeutic drug for each population of animals. […] Accordingly, at designated time post-treatment, ^99mTc-duramycin was injected intravenously and each animal was euthanized for tissue collection and gamma counting. This is a standard practice in radionuclide studies that provides precise, quantitative biodistribution data for measuring changes in tracer uptake.
The data can be expressed in two ways—net change in ^99mTc-duramycin uptake per unit tissue in cyclophosphamide-treated tissues relative to the mean value of the non-treated control population (FIG. 1A), and fold changes in ^99mTc-duramycin uptake over the mean of control (1B).
An organ, such as the kidney, consists of different anatomical components (cortex, medulla, hilum), where the in vivo imaging data provide more spatial information by identifying signal changes within the substructures of an organ (see in vivo sections below).
Although the ex vivo gamma counting is a standard practice in radionuclide studies, a notable limitation is that the tissue collection may be prone to sampling errors. In addition, this approach provides limited spatial information in terms of the distribution within an intact organ/tissue.

Where [5] appears, read: cyclophosphamide single dose, day-2.
The mark [6] stands for this setting: cyclophosphamide single dose 80 mg/kg i.p., 2 days.

On to `N.N.[Cl][Pt][Cl]` [cisplatin], for which the histopathology of kidney result in the data set with rats [1] (rat, in vivo) was “cellular degradation and significantly elevated apoptosis in the cortical region”.
As for `O=P1(N(CCCl)CCCl)NCCCO1` (stereo not drawn) [cyclophosphamide], in the data set with rats [2] (setting [5]), the “key tissues with changes in ^99mTc-duramycin uptake” value was “kidneys—medulla and cortex, spleen, thymus and gut”; the “region of the kidneys affected” value is given as “primarily affect the infundibulum of the kidneys”; the “tissues with statistically elevated, relatively low signals” value was “bones, adipose tissue, heart, lung, muscle, skin and stomach”. Moreover, the “tissues with elevated coefficients of variation compared to the baseline” value in the data set on rats [3] was “bone, colon, gut, heart, skin, and thymus”. Further, in the data set on rats [1] (setting [5]), the “apoptotic index, kidney medulla” value is listed as “significantly elevated apoptotic index in the local tissue”; the “apoptotic index, thymus” value is “significantly elevated apoptotic index”; the “histopathology of bones (epiphysis regions, marrow)” value is “extensive decellularization in the marrow”. Also, in the data set with rats [4] (setting [6]), the “tissues with highest fold changes in ^99mTc-duramycin uptake” value is “thymus, adipose tissue, pancreas, brain, right ventricle, liver and bone”; the “tissues with the largest elevation in ^99mTc-duramycin uptake” value was “kidneys, liver, spleen, thymus, lung, small intestine and bone”.
For the compound `CN(Cc1cnc2nc(N)nc(N)c2n1)c1ccc(C(=O)N[C@@H](CCC(=O)O)C(=O)O)cc1` [methotrexate], in the data set with rats [2] (rat, in vivo), the “changes in skin signals” value is “non-uniform throughout the body”; the “signals in the joints” value was “drastically elevated signals in the joints”; the “tissues with highest changes in terms of fold elevation” value is “colon, kidney—medulla, bone, spleen, and kidney—cortex”; the “tissues with the highest signal changes as net ^99mTc-duramycin uptake per unit tissue” value is “kidneys and colon”. Besides, the histopathology of joints entry with rats [1] (rat, in vivo) was “joint degeneration and thrombosis”. For the same compound, in the data set with rats [4] (rat, in vivo, 100 mg/kg), the “change in ^99mTc-duramycin uptake in tissues” value is recorded as “notable elevation in ^99mTc-duramycin uptake in a number of tissues”; the “most prominent tissues according to fold changes” value was “small intestine, colon, liver, thymus and kidneys”; the “tissues with the highest increase in ^99mTc-duramycin uptake” value was “kidneys, small intestine, liver, and colon”.
